Measured values taken from ChEMBL document CHEMBL3991601, “The target landscape of clinical kinase drugs” (Science, 2017).
Calls of active or inactive are those of the source. Rule as the data show it, for most assays here: actives have a measured Kd and inactives only a lower limit.

Target: T1, Cyclin-G-associated kinase (Homo sapiens, UniProt O14976)
T1 sequence (O14976 whole entry): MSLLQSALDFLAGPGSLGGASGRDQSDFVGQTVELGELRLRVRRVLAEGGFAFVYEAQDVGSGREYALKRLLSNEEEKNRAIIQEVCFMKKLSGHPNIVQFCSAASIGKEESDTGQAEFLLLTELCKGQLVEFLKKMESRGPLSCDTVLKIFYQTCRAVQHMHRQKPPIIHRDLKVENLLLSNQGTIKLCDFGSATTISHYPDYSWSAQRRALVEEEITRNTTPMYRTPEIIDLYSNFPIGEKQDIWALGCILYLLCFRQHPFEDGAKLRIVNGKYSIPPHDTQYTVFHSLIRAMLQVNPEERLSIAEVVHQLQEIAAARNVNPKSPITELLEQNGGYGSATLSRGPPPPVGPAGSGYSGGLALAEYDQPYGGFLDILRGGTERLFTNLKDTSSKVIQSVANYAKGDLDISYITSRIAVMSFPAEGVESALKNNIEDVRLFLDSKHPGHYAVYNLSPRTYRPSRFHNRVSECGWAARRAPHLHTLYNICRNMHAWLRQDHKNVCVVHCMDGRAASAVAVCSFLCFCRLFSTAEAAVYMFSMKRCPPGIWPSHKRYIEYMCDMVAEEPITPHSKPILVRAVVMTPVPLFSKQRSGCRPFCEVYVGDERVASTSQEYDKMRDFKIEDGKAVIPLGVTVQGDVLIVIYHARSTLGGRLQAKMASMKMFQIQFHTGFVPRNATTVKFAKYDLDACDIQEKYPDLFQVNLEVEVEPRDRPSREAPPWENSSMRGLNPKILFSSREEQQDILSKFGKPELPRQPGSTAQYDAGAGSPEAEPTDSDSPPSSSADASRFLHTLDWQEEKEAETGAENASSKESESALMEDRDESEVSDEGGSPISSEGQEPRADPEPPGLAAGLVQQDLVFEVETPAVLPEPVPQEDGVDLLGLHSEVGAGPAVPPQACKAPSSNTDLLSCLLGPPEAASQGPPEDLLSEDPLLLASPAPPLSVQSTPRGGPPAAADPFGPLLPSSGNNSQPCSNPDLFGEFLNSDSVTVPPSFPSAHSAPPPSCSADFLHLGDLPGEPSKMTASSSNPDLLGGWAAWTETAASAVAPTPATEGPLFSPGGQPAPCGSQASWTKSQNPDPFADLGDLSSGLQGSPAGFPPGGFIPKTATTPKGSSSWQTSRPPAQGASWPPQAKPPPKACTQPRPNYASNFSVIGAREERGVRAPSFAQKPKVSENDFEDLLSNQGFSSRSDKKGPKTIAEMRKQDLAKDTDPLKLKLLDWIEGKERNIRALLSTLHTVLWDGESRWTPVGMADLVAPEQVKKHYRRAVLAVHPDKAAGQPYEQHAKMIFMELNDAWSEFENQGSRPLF
Also: in the data inactive means no Kd found up to 30 µM.

How did the Kd turn out when `COc1cc(N2CCC(N3CCN(C)CC3)CC2)ccc1Nc1ncnc(Nc2ccccc2S(=O)(=O)C(C)C)n1` [ASP-3026] was run?
The Kd was 2.82 µM (active).

Which Kd does the source give for `CNS(=O)(=O)Nc1nccc(Cc2c(C)c3ccc(Oc4ncccn4)cc3oc2=O)c1F` [AVUTOMETINIB] here?
Its Kd is > 30 µM (inactive).

How did the Kd turn out when `COc1cc(CCc2cc(NC(=O)c3ccc(N4C[C@@H](C)N[C@@H](C)C4)cc3)n[nH]2)cc(OC)c1` [AZD-4547] was run?
The Kd was > 30 µM (inactive).

`Cc1cc([C@@H](C)Nc2ccccc2C(=O)O)c2nc(N3CCOCC3)cc(=O)n2c1` [AZD-6482] was tested. Which Kd did it give?
Its Kd is > 30 µM (inactive).

`COc1ccc(-c2ccc3c(N4CCOC[C@@H]4C)nc(N4CCOC[C@@H]4C)nc3n2)cc1CO` [AZD-8055] was tested. Which Kd did it give?
The Kd was > 30 µM (inactive).

With `C[C@@H](Nc1cc(F)cc(F)c1)c1cc(C(=O)N(C)C)cc2c(=O)cc(N3CCOCC3)oc12` [AZD-8186] as the molecule, how does the Kd read?
The Kd was > 30 µM (inactive).

Target: T2, Bifunctional phosphoribosylaminoimidazole carboxylase/phosphoribosylaminoimidazole succinocarboxamide synthetase (Homo sapiens, UniProt P22234)
T2 sequence (P22234 whole entry): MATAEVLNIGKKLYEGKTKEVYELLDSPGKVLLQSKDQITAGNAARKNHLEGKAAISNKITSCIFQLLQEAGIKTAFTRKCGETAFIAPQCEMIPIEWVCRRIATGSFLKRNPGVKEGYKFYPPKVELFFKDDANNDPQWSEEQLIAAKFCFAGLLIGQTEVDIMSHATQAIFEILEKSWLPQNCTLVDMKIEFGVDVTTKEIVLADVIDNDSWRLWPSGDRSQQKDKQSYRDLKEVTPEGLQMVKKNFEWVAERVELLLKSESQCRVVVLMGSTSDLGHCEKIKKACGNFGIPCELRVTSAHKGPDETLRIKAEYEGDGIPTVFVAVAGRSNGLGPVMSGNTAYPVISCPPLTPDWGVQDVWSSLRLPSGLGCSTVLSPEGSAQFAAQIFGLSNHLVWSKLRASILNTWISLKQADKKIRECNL

With `COc1cc(N2CCC(N3CCN(C)CC3)CC2)ccc1Nc1ncnc(Nc2ccccc2S(=O)(=O)C(C)C)n1` [ASP-3026] as the molecule, how does the Kd read?
Its Kd is > 30 µM (inactive).

For `CNS(=O)(=O)Nc1nccc(Cc2c(C)c3ccc(Oc4ncccn4)cc3oc2=O)c1F` [AVUTOMETINIB], which Kd is on record?
Its Kd is > 30 µM (inactive).

`COc1cc(CCc2cc(NC(=O)c3ccc(N4C[C@@H](C)N[C@@H](C)C4)cc3)n[nH]2)cc(OC)c1` [AZD-4547] was tested. Which Kd did it give?
Its Kd is > 30 µM (inactive).

For `Cc1cc([C@@H](C)Nc2ccccc2C(=O)O)c2nc(N3CCOCC3)cc(=O)n2c1` [AZD-6482], which Kd is on record?
The Kd was > 30 µM (inactive).

How did the Kd turn out when `COc1ccc(-c2ccc3c(N4CCOC[C@@H]4C)nc(N4CCOC[C@@H]4C)nc3n2)cc1CO` [AZD-8055] was run?
The Kd was > 30 µM (inactive).

For `C[C@@H](Nc1cc(F)cc(F)c1)c1cc(C(=O)N(C)C)cc2c(=O)cc(N3CCOCC3)oc12` [AZD-8186], which Kd is on record?
The Kd was > 30 µM (inactive).

Target: Protein kinase C beta type (Homo sapiens, UniProt P05771)
Sequence (P05771 whole entry): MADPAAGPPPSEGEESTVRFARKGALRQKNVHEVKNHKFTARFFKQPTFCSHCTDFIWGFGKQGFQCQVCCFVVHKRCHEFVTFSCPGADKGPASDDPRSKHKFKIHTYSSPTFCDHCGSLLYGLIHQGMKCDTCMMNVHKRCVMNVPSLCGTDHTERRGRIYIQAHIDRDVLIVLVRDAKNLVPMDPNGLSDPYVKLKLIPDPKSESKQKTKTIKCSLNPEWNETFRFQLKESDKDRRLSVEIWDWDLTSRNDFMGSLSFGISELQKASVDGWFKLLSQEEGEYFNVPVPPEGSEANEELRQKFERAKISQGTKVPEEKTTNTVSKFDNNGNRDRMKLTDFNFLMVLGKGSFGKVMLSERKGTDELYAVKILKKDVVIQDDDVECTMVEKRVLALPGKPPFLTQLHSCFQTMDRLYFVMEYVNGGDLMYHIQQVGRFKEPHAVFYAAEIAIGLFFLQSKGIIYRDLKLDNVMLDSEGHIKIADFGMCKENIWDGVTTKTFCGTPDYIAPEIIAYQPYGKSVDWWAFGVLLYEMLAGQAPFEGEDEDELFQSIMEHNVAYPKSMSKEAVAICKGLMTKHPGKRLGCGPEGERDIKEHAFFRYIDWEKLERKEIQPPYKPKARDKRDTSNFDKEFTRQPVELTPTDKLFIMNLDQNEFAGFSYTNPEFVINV

How did the Kd turn out when `COc1cc(N2CCC(N3CCN(C)CC3)CC2)ccc1Nc1ncnc(Nc2ccccc2S(=O)(=O)C(C)C)n1` [ASP-3026] was run?
Its Kd is > 30 µM (inactive).

With `CNS(=O)(=O)Nc1nccc(Cc2c(C)c3ccc(Oc4ncccn4)cc3oc2=O)c1F` [AVUTOMETINIB] as the molecule, how does the Kd read?
The Kd was > 30 µM (inactive).

Which Kd does the source give for `COc1cc(CCc2cc(NC(=O)c3ccc(N4C[C@@H](C)N[C@@H](C)C4)cc3)n[nH]2)cc(OC)c1` [AZD-4547] here?
The Kd was > 30 µM (inactive).

For `Cc1cc([C@@H](C)Nc2ccccc2C(=O)O)c2nc(N3CCOCC3)cc(=O)n2c1` [AZD-6482], which Kd is on record?
Its Kd is > 30 µM (inactive).

For `COc1ccc(-c2ccc3c(N4CCOC[C@@H]4C)nc(N4CCOC[C@@H]4C)nc3n2)cc1CO` [AZD-8055], which Kd is on record?
Its Kd is > 30 µM (inactive).

How did the Kd turn out when `C[C@@H](Nc1cc(F)cc(F)c1)c1cc(C(=O)N(C)C)cc2c(=O)cc(N3CCOCC3)oc12` [AZD-8186] was run?
The Kd was > 30 µM (inactive).

Target: Tyrosine-protein kinase CSK (Homo sapiens, UniProt P41240)
Sequence (P41240 whole entry): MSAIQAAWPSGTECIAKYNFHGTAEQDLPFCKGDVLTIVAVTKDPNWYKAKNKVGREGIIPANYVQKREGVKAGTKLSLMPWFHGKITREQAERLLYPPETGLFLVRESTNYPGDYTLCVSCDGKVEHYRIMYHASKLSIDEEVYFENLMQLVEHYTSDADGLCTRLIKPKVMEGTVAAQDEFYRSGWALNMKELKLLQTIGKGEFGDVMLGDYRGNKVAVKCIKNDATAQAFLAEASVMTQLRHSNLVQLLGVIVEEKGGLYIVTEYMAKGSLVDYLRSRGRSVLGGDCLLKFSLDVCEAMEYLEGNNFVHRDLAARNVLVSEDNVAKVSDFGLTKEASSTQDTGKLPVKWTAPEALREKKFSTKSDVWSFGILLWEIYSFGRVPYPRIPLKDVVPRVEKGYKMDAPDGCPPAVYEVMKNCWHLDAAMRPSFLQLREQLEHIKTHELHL

`COc1cc(N2CCC(N3CCN(C)CC3)CC2)ccc1Nc1ncnc(Nc2ccccc2S(=O)(=O)C(C)C)n1` [ASP-3026] was tested. Which Kd did it give?
The Kd was > 30 µM (inactive).

For `CNS(=O)(=O)Nc1nccc(Cc2c(C)c3ccc(Oc4ncccn4)cc3oc2=O)c1F` [AVUTOMETINIB], which Kd is on record?
Its Kd is > 30 µM (inactive).

`COc1cc(CCc2cc(NC(=O)c3ccc(N4C[C@@H](C)N[C@@H](C)C4)cc3)n[nH]2)cc(OC)c1` [AZD-4547] was tested. Which Kd did it give?
The Kd was > 30 µM (inactive).

Which Kd does the source give for `Cc1cc([C@@H](C)Nc2ccccc2C(=O)O)c2nc(N3CCOCC3)cc(=O)n2c1` [AZD-6482] here?
The Kd was > 30 µM (inactive).

With `COc1ccc(-c2ccc3c(N4CCOC[C@@H]4C)nc(N4CCOC[C@@H]4C)nc3n2)cc1CO` [AZD-8055] as the molecule, how does the Kd read?
Its Kd is > 30 µM (inactive).

`C[C@@H](Nc1cc(F)cc(F)c1)c1cc(C(=O)N(C)C)cc2c(=O)cc(N3CCOCC3)oc12` [AZD-8186] was tested. Which Kd did it give?
The Kd was > 30 µM (inactive).

Target: Cyclin-dependent kinase 13 (Homo sapiens, UniProt Q14004)
Sequence (Q14004 whole entry): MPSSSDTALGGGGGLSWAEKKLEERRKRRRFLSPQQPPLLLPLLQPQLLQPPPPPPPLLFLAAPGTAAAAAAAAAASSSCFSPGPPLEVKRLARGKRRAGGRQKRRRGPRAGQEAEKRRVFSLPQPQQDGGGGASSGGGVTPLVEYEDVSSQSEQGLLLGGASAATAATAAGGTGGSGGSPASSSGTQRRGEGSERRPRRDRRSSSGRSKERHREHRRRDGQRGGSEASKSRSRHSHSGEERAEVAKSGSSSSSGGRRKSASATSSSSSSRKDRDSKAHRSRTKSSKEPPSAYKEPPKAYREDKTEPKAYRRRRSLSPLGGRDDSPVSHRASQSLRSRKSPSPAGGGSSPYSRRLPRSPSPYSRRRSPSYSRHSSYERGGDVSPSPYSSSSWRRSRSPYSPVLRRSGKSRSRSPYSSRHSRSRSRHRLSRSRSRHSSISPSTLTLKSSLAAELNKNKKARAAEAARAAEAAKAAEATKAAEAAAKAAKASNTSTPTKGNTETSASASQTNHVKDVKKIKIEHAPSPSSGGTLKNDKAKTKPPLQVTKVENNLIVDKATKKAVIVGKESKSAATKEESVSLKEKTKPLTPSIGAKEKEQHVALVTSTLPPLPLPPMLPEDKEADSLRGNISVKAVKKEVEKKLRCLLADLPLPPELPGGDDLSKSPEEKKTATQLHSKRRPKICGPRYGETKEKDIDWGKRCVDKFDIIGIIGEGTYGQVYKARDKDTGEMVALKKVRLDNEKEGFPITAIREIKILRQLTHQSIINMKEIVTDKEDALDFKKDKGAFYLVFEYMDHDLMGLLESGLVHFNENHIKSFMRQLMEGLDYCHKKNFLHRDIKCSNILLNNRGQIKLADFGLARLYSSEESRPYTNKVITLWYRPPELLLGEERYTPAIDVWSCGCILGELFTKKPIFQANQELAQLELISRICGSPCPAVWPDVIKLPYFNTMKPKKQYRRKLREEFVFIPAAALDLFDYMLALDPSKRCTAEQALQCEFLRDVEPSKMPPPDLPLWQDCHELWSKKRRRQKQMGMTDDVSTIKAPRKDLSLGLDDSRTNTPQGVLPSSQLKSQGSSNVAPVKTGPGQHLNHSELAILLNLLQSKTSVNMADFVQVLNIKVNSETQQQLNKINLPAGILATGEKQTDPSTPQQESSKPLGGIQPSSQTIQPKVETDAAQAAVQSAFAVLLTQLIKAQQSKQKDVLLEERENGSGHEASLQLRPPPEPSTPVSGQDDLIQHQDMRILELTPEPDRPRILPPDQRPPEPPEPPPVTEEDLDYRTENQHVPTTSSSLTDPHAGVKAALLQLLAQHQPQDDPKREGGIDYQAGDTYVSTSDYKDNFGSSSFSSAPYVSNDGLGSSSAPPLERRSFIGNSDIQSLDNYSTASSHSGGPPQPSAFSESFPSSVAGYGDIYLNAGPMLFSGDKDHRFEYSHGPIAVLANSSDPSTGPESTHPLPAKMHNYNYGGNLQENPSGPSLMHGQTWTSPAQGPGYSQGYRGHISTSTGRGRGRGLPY

Which Kd does the source give for `COc1cc(N2CCC(N3CCN(C)CC3)CC2)ccc1Nc1ncnc(Nc2ccccc2S(=O)(=O)C(C)C)n1` [ASP-3026] here?
Its Kd is > 30 µM (inactive).

How did the Kd turn out when `CNS(=O)(=O)Nc1nccc(Cc2c(C)c3ccc(Oc4ncccn4)cc3oc2=O)c1F` [AVUTOMETINIB] was run?
Its Kd is > 30 µM (inactive).

How did the Kd turn out when `COc1cc(CCc2cc(NC(=O)c3ccc(N4C[C@@H](C)N[C@@H](C)C4)cc3)n[nH]2)cc(OC)c1` [AZD-4547] was run?
The Kd was > 30 µM (inactive).

Which Kd does the source give for `Cc1cc([C@@H](C)Nc2ccccc2C(=O)O)c2nc(N3CCOCC3)cc(=O)n2c1` [AZD-6482] here?
Its Kd is > 30 µM (inactive).

With `COc1ccc(-c2ccc3c(N4CCOC[C@@H]4C)nc(N4CCOC[C@@H]4C)nc3n2)cc1CO` [AZD-8055] as the molecule, how does the Kd read?
Its Kd is > 30 µM (inactive).

For `C[C@@H](Nc1cc(F)cc(F)c1)c1cc(C(=O)N(C)C)cc2c(=O)cc(N3CCOCC3)oc12` [AZD-8186], which Kd is on record?
Its Kd is > 30 µM (inactive).

Target: T3, AarF domain-containing protein kinase 1 (Homo sapiens, UniProt Q86TW2)
T3 sequence (Q86TW2 whole entry): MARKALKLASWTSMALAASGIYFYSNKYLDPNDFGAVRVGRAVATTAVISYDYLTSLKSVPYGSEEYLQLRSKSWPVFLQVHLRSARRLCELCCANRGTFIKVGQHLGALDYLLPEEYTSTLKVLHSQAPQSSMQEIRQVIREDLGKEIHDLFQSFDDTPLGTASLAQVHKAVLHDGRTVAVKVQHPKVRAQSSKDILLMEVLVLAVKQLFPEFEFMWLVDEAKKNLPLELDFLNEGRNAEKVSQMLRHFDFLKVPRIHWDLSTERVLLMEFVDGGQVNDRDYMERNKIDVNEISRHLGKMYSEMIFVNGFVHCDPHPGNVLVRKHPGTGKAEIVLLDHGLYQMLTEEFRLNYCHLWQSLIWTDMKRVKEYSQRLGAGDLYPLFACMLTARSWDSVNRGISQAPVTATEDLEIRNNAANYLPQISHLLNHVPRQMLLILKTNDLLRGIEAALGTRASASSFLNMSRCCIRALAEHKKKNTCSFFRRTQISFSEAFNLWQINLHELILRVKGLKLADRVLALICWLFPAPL

`COc1cc(N2CCC(N3CCN(C)CC3)CC2)ccc1Nc1ncnc(Nc2ccccc2S(=O)(=O)C(C)C)n1` [ASP-3026] was tested. Which Kd did it give?
Its Kd is > 30 µM (inactive).

For `CNS(=O)(=O)Nc1nccc(Cc2c(C)c3ccc(Oc4ncccn4)cc3oc2=O)c1F` [AVUTOMETINIB], which Kd is on record?
The Kd was > 30 µM (inactive).

With `COc1cc(CCc2cc(NC(=O)c3ccc(N4C[C@@H](C)N[C@@H](C)C4)cc3)n[nH]2)cc(OC)c1` [AZD-4547] as the molecule, how does the Kd read?
The Kd was > 30 µM (inactive).

`Cc1cc([C@@H](C)Nc2ccccc2C(=O)O)c2nc(N3CCOCC3)cc(=O)n2c1` [AZD-6482] was tested. Which Kd did it give?
The Kd was > 30 µM (inactive).

How did the Kd turn out when `COc1ccc(-c2ccc3c(N4CCOC[C@@H]4C)nc(N4CCOC[C@@H]4C)nc3n2)cc1CO` [AZD-8055] was run?
The Kd was > 30 µM (inactive).

How did the Kd turn out when `C[C@@H](Nc1cc(F)cc(F)c1)c1cc(C(=O)N(C)C)cc2c(=O)cc(N3CCOCC3)oc12` [AZD-8186] was run?
The Kd was > 30 µM (inactive).
